From patent EP0293133A2, “Microorganisms and processes for the manufacture of antifungal tri-yne carbonates” (Merck & Co., Inc., priority 1987, dated 1988)
Read-outs that look alike come from different tables or passages of the source.

Assays:
Assay in all cases: agar dilution assay, antifungal activity (MIC)
Assay type in all cases: cell-based
[1] = test system: Ca. pseudotropicallis; conditions: Ca. pseudotropicallis MY1040; yeast nitrogen base plus glucose agar, 28°C, 48 hours; read-out: MINIMUM INHIBITORY CONCENTRATION
Method: (§1) The antifungal activity of the compound of formula I was determined by an agar dilution assay as follows: […]
(§2) The compound of formula I was added to cooled, molten yeast nitrogen base plus glucose agar (1.0 ml of drug plus 9.0 ml agar). Appropriate solvent and media controls (drug free) also were prepared. Prepared plates were stored in the dark at room temperature overnight prior to use.
(§3) The yeast cultures, maintained in yeast maltose (YM) broth, were transferred to fresh YM medium and incubated overnight at 37°C with shaking (250 rpm). After incubation, each culture was diluted in sterile saline to yield final concentrations of 3 x 10⁵ to 3 x 10⁶ colony forming units (CFU)/ml. The isolates of Aspergillus and Penicillium were maintained on potato dextrose agar slants and spore suspensions made following vigourous shaking with sterile glass beads. The spore preparations were used as the inocula for these three filamentous fungi.
(§4) Each prepared plate was inoculated with 21 yeast-like and filamentous fungi using a Denley Multipoint Inoculator (Denley, Sussex, England). The inoculator delivers approximately 0.001 ml to the agar surface resulting in inoculation of from 3 x 10² to 3 x 10³ CFUs. The plates were incubated at 28°C for 48 hours. The minimum inhibitory concentrations (MICs) were recorded as the lowest concentration of drug showing no growth or less than three CFU/spot.

[2] = test system: A. flavus; conditions: Aspergillus flavus; A. flavus MF0383; spore inoculum, yeast nitrogen base plus glucose agar, 28°C, 48 hours; read-out: MINIMUM INHIBITORY CONCENTRATION
Method: as §1, §2, §3, §4

[3] = test system: Ca. rugosa; conditions: Diutina rugosa; Ca. rugosa MY1022; yeast nitrogen base plus glucose agar, 28°C, 48 hours; read-out: MINIMUM INHIBITORY CONCENTRATION
Method: as §1, §2, §3, §4

[4] = test system: Ca. guilliermondii; conditions: Meyerozyma guilliermondii; Ca. guilliermondii MY1019; yeast nitrogen base plus glucose agar, 28°C, 48 hours; read-out: MINIMUM INHIBITORY CONCENTRATION
Method: as §1, §2, §3, §4

[5] = test system: Torulopsis glabrata; conditions: Nakaseomyces glabratus; Torulopsis glabrata MY1059; yeast nitrogen base plus glucose agar, 28°C, 48 hours; read-out: MINIMUM INHIBITORY CONCENTRATION
Method: as §1, §2, §3, §4

[6] = test system: Ca. tropicalis; conditions: Candida tropicalis, 48 h, 28°C, read-out: MINIMUM INHIBITORY CONCENTRATION
Method: as §1, §2, §3, §4

[7] = test system: Sac. cerevisiae; conditions: Saccharomyces cerevisiae; Sac. cerevisiae MY1027; yeast nitrogen base plus glucose agar, 28°C, 48 hours; read-out: MINIMUM INHIBITORY CONCENTRATION
Method: as §1, §2, §3, §4

[8] = test system: Penicillium italicum; conditions: Penicillium italicum MF2819; spore inoculum, yeast nitrogen base plus glucose agar, 28°C, 48 hours; read-out: MINIMUM INHIBITORY CONCENTRATION
Method: as §1, §2, §3, §4

[9] = test system: Ca. krusei; conditions: Pichia kudriavzevii; Ca. krusei MY1020; yeast nitrogen base plus glucose agar, 28°C, 48 hours; read-out: MINIMUM INHIBITORY CONCENTRATION
Method: as §1, §2, §3, §4

[10] = test system: Ca. stellatoidea; conditions: Candida albicans; Ca. stellatoidea MY1018; yeast nitrogen base plus glucose agar, 28°C, 48 hours; read-out: MINIMUM INHIBITORY CONCENTRATION
Method: as §1, §2, §3, §4

[11] = test system: Candida albicans; conditions: 48 h, 28°C, read-out: MINIMUM INHIBITORY CONCENTRATION
Method: as §1, §2, §3, §4

[12] = test system: Crypotococcus neoformans; conditions: yeast nitrogen base plus glucose agar, 28°C, 48 hours, read-out: MINIMUM INHIBITORY CONCENTRATION
Method: as §1, §2, §3, §4

[13] = test system: Aspergillus fumigatus; conditions: Aspergillus fumigatus MF4839; spore inoculum, yeast nitrogen base plus glucose agar, 28°C, 48 hours; read-out: MINIMUM INHIBITORY CONCENTRATION
Method: as §1, §2, §3, §4

[14] = test system: Ca. parapsilosis; conditions: Lodderomyces parapsilosis, 48 h, 28°C, read-out: MINIMUM INHIBITORY CONCENTRATION
Method: as §1, §2, §3, §4

C#CC#CC#CC(O)C1OC(=O)OC1CCCCCCC(=O)O (stereo not drawn) [compound of formula I]
MIC [1]: 0.94 µg/mL | MIC [2]: > 30 µg/mL | MIC [3]: 7.5 µg/mL | MIC [4]: 7.5 µg/mL | MIC [5]: 1.88 µg/mL | MIC ([6]; Ca. tropicalis MY1011, yeast nitrogen base plus glucose agar): 15 µg/mL | MIC ([6]; Ca. tropicalis MY1012, yeast nitrogen base plus glucose agar): 1.88 µg/mL | MIC [7]: 1.88 µg/mL | MIC [8]: 7.5 µg/mL | MIC [9]: 30 µg/mL | MIC [10]: 7.5 µg/mL | MIC ([11]; Ca. albicans MY0992, yeast nitrogen base plus glucose agar): 7.5 µg/mL | MIC ([11]; Ca. albicans MY1013, yeast nitrogen base plus glucose agar): 0.47 µg/mL | MIC ([11]; Ca. albicans MY1029, yeast nitrogen base plus glucose agar): 0.47 µg/mL | MIC ([11]; Ca. albicans MY1055, yeast nitrogen base plus glucose agar): 0.47 µg/mL | MIC ([11]; Candida albicans MY1058, yeast nitrogen base plus glucose agar): 0.47 µg/mL | MIC ([12]; Cr. neoformans MY1146): 3.75 µg/mL | MIC ([12]; Crypotococcus neoformans MY1051): 1.88 µg/mL | MIC [13]: > 30 µg/mL | MIC ([14]; Ca. parapsilosis MY1009, yeast nitrogen base plus glucose agar): 1.88 µg/mL | MIC ([14]; Ca. parapsilosis MY1010, yeast nitrogen base plus glucose agar): 0.47 µg/mL
